Data on seven compounds can be found in patent US20160375019A1, “TREATMENT OF CHRONIC GRAFT VERSUS HOST DISEASE WITH SYK INHIBITORS” (Gilead Sciences, Inc., priority 2015, published 2016).

The subject of data set [1] is basophils (CD63 expression) in human whole blood. The data set can be described thus: 384-well HTBS Whole Blood CD63 Basophil Assay. It is filed as cell-based. To be noted: human whole blood (25% blood); for EC50: Homo sapiens, anti-FceRI mAb activation; for IC50: comparison table. How it is done: Syk activity was assessed in relation to reduced activation of basophils as measured by the expression of CD63 in a human whole blood basophil cellular assay (25% blood). Basophil activation was measured in human whole blood using the Flow CAST kit (Buhlmann Laboratories AG, Baselstrasse, Switzerland) following the protocol provided by the manufacturer with minor modifications. Fresh human whole blood in heparin was collected and delivered same day (AllCells, Emeryville, Calif.). Whole blood samples were incubated with either DMSO (1% final) or serial diluted compounds in DMSO for 60 minutes at 37° C. Basophils were activated using the anti-FceRI mAb and stained with anti-CD63-FITC and anti-CCR3-PE for 20 minutes at 37° C. (per well: 50 μL of whole blood was mixed with 113 μL of stimulation buffer, 8.5 μL anti-FceRI mAb, 8.5 μL Ab stain CCR3-PE/CD63-FITC). Cells were centrifuged at 1000×g for 18 minutes and 150 μL/well of supernatant removed. Red blood cells were lysed and cells fixed by 2 rounds of cell lysing: resuspending cell pellets with 150 μL/well 1× lysis buffer, incubating at room temperature for 10 minutes, and collecting cell pellets by centrifuging for 1200 rpms for 5 minutes. Cells were washed with 150 μL/well wash buffer twice, and resuspended in a final volume of 75 μL/well of wash buffer for either immediate flow cytometery analysis or overnight incubation at 4° C. followed by flow cytometry analysis. Degranulation (basophil activation) was detected by CD63 surface expression on CCR3 positive cells. The percent CD63 positive cells within the gated basophil population were determined and normalized to the DMSO (negative control) and control compound (positive control).

The next data set deals with hepatocytes. Type of data set: in vitro ADME. As to conditions: human. The procedure: The human […] stability of the compounds as predicted hepatocyte clearance in L/hr/kg was assessed. Compounds to be tested were diluted to 200 μM (4 μl of 10 mM DMSO stock into 196 μl ACN:H2O (50:50). Propranolol was used as a positive control, and buffer only without hepatocytes as 0% control. These were further diluted 4 μl with 891 μl KHB buffer (InVitroGRO catalog number Z99074) to provide 2× dosing solution. To each well of 24 well plate, 250 μl of the 2× dosing solution was added to each well with 250 μl of hepatocytes cells (1×10^6 viable cells/ml per well) or KHB for control samples to achieve a final compound concentration of 1 μM during incubation. The final solvent concentration was 0.01% DMSO and 0.25% ACN. The culture plate was placed on a rocker and incubated at 37° C., 5% CO2. Samples were collected at time 0, 1, 3, and 6 hours. The loss of parent compound was determined using LC-MS methods against a standard curve.

Data set [2] in a line: Kinetic Solubility in phosphate buffer at pH 7.4. Type of data set: physicochemical. To be noted: 37 °C, aqueous buffer, kinetic from dmso stock; phosphate buffer pH 7.4. The procedure: The kinetic solubility of compounds in phosphate buffer at pH 7.4 was assessed. The compounds to be tested were dissolved in dimethylsulfoxide at a 10 mM concentration. Stock samples were diluted, 3 μl with 297 μl of the phosphate buffer at pH 7.4 (DulBecco's phosphate buffered saline (Sigma-Aldrich D8662), overall molarity is 0.149 M and pH 7.43). The samples were then incubated for 24 hours at 37° C. with shaking, the centrifuged and an aliquot taken and tested relative to a known standard concentration of 0.1 mM.

The subject of data set [3] is aberrant GVHD B-cell populations. To be noted: ex vivo; cited from earlier work.

Regarding `Cc1c(-c2cncc(N)n2)nc(Nc2ccc(N3CCN(C4COC4)CC3)cc2)c2nccn12` [Ex.-4, 6-(6-aminopyrazin-2-yl)-5-methyl-N-(4-(4-(oxetan-3-yl)piperazin-1-yl)phenyl)imidazo[1,2-a]pyrazin-8-amine], in data set [1], the EC50 is < 200 nM and the IC50 came to 157 nM. In the data set on hepatocytes, the Hheps CL came to 1.33 mL/min/kg. Also, in data set [2], the solubility (kinetic) at 24 h was > 90 µM.
Regarding `Nc1cncc(-c2cn3ccnc3c(Nc3ccc(N4CCN(CC(CO)CO)CC4)cc3)n2)n1` [Ex.-6, 2-((4-(4-((6-(6-aminopyrazin-2-yl)imidazo[1,2-a]pyrazin-8-yl)amino)phenyl)piperazin-1-yl)methyl)propane-1,3-diol], in data set [1], the EC50 was < 200 nM and the IC50 turned out to be 128 nM. Also, the Hheps CL in the data set on hepatocytes worked out at 1.33 mL/min/kg. The solubility (kinetic) at 24 h in data set [2] is > 90 µM.
As to `COc1cc(Nc2ncc(F)c(Nc3ccc4c(n3)N(COP(=O)(O)O)C(=O)C(C)(C)O4)n2)cc(OC)c1OC` [fostamatinib], the “function and frequency of aberrant GVHD B-cell populations” value in data set [3] is “selectively reduce the function and frequency of aberrant GVHD B-cell populations”.
In the case of `Cc1ncc(-c2cn3ccnc3c(Nc3ccc(N4CCN(C5COC5)CC4)cc3)n2)nc1N` [Ex.-1, 6-(6-amino-5-methylpyrazin-2-yl)-N-(4-(4-(oxetan-3-yl)piperazin-1-yl)phenyl)imidazo[1,2-a]pyrazin-8-amine], the Hheps CL with hepatocytes was determined as 2 mL/min/kg. For the same compound, the solubility (kinetic) at 24 h in data set [2] is > 90 µM.
In data set [1], `Nc1cncc(-c2cn3ccnc3c(Nc3ccc(N4CCO[C@@H](CO)C4)cc3)n2)n1` [Ex.-3, (R)-(4-(4-((6-(6-aminopyrazin-2-yl)imidazo[1,2-a]pyrazin-8-yl)amino)phenyl)morpholin-2-yl)methanol] showed an IC50 of 63 nM. The Hheps CL with hepatocytes turned out to be 1.5 mL/min/kg. The solubility (kinetic) at 24 h in data set [2] is > 90 µM.
For the compound `Cc1ncc(-c2cn3ccnc3c(Nc3ccc(N4CCN(C5COC5)CC4)c(OCCO)c3)n2)nc1N` [Ex.-7, 2-(5-((6-(6-amino-5-methylpyrazin-2-yl)imidazo[1,2-a]pyrazin-8-yl)amino)-2-(4-(oxetan-3-yl)piperazin-1-yl)phenoxy)ethanol], the Hheps CL with hepatocytes is 0.833 mL/min/kg. For the same compound, in data set [2], the solubility (kinetic) at 24 h was > 90 µM.
For `Nc1cncc(-c2cn3ccnc3c(Nc3ccc(N4CCN(C5COC5)CC4)c(OCCO)c3)n2)n1` [Ex.-5, 2-(5-((6-(6-aminopyrazin-2-yl)imidazo[1,2-a]pyrazin-8-yl)amino)-2-(4-(oxetan-3-yl)piperazin-1-yl)phenoxy)ethanol], in data set [1], the EC50 was < 200 nM and 120 nM corresponded to half-maximal inhibition (IC50). Moreover, the Hheps CL with hepatocytes turned out to be 1.17 mL/min/kg. Also, the solubility (kinetic) at 24 h in data set [2] was > 90 µM.

One may read the EC50 as the concentration at which the effect is half-maximal. Lower therefore signals an effect from little substance. By IC50 is commonly meant the concentration that gives 50% inhibition. Read a high IC50 as weaker potency. The kinetic solubility is the concentration staying in solution when a stock, usually in DMSO, is diluted into the medium.
